We go through twelve compounds from patent publication US20030134859A1 (SANKYO COMPANY, LIMITED, priority 2000, published 2003).

One test relates to leptin production. The test can be described thus: Enhancing activity for leptin production in adipocytes (ELISA). Format: cell-based, rat. The conditions noted are these: leptin concentration as % of control group; for activity at 1 µM / activity at 0.01 µM / activity at 0.1 µM: Rattus norvegicus, Adipocyte, 24 h, read-out: Facilitating activity to produce leptin; for Facilitating activity to produce leptin: 24 hr. Put shortly:
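Collagenase-dispersed epididymal adipocytes from 6-week-old male Wistar Imamichi rats, cultured in DMEM/F-12 (1:1) with test compound at final 1 µM, 100 nM, 10 nM or 1 nM (0.1% DMSO) for 24 h at 37 °C, 5% CO2. Leptin in filtrate measured by ELISA; activity = treated/DMSO-control leptin × 100 (%).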

Another test relates to Rat white adipocytes. The test can be described thus: Inhibition of the differentiation of adipocytes (Oil Red O). Format: cell-based. The conditions noted are these: 100 nM test compound, 5 days, Oil Red O ABS550, control = 100%, blank = 0%, Table 3; for activity at 0.1 µM: Rattus norvegicus, Adipocyte, 120 h, read-out: Rate of Differentiation (%). Put shortly:
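Rat white preadipocytes, 5,000 cells/well, given differentiation medium with compound at 100 nM final (0.1% DMSO) for 5 days at 37 °C. Lipid stained with Oil Red O, eluted in DMSO, read at 550 nm; differentiation % relative to DMSO control (100%) and blank (0%).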

SMILES strings stand for the structures.

On to `CCCCCCCCN(CCCC)c1ccc(-c2ccc(NC(=O)c3cc([N+](=O)[O-])ccc3Cl)cc2)cc1` [Example 222, N-[4-[4-(N-Butyl-N-octylamino)phenyl]phenyl]-(2-chloro-5-nitrophenyl)carboxamide], for which, in the test on leptin production (1 μM), the activity at 1 µM amounted to 114%. Also, the activity at 0.01 µM with leptin production (10 nm) came out at 110%. For the same compound, the activity at 0.1 µM in the test with leptin production (100 nm) was 109%; with Rat white adipocytes it was 48.6%.
As to `CCCCCCCCN(CCCC)c1ccc(-c2ccc(NC(=O)c3cc([N+](=O)[O-])ccc3Cl)cc2)cc1.Cl` [Example 223, N-[4-[4-(N-Butyl-N-octylamino)phenyl]phenyl]-(2-chloro-5-nitrophenyl)carboxamide mono-hydrochloride], the “Facilitating activity to produce leptin” value is 115.9% in the test with leptin production (1 μM), 109.0% in the test on leptin production (10 nm) and 115.2% in the test on leptin production (100 nm). Further, the “Rate of Differentiation (%)” value in the test on Rat white adipocytes stood at 35.0%.
Turning to `CCCCCCCCN(CCC)c1ccc(-c2ccc(NC(=O)c3cc([N+](=O)[O-])ccc3Cl)cc2)cc1` [Example 224, N-[4-[4-(N-Octyl-N-propylamino)phenyl]phenyl]-(2-chloro-5-nitrophenyl)carboxamide], the activity at 1 µM with leptin production (1 μM) was 113%. The activity at 0.01 µM with leptin production (10 nm) turned out to be 110%. Moreover, the results for the activity at 0.1 µM in the test with leptin production (100 nm) and in the test with Rat white adipocytes were 112% and 40.9%, respectively.
As to `CCCCCCCCN(CC)c1ccc(-c2ccc(NC(=O)c3cc([N+](=O)[O-])ccc3Cl)cc2)cc1` [Example 225, N-[4-[4-(N-Ethyl-N-octylamino)phenyl]phenyl]-(2-chloro-5-nitrophenyl)carboxamide], the activity at 1 µM in the test on leptin production (1 μM) came out at 117%. Besides, in the test on leptin production (10 nm), the activity at 0.01 µM came to 107%. Also, the activity at 0.1 µM with leptin production (100 nm) came to 108%; with Rat white adipocytes it was 45.9%.
In the case of `O=C(Nc1ccc(N2CCN(C(=O)c3ccncc3)CC2)cc1)c1cc([N+](=O)[O-])ccc1Cl` [Example 228, N-[4-[4-(Pyridin-4-ylcarbonyl)piperazin-1-yl]phenyl]-(2-chloro-5-nitrophenyl)carboxamide], the activity at 1 µM with leptin production (1 μM) was 112%. Besides, the activity at 0.01 µM in the test on leptin production (10 nm) was 119%. Moreover, the activity at 0.1 µM in the test with leptin production (100 nm) worked out at 122%; in the test with Rat white adipocytes it was 17.5%.
Regarding `O=C(Nc1ccc(CCO)cc1)c1cc([N+](=O)[O-])ccc1Cl` [Example 230, N-[4-(2-Hydroxyethyl)phenyl]-(2-chloro-5-nitrophenyl)carboxamide], the activity at 0.01 µM in the test on leptin production (10 nm) was found to be 110%. In the test on Rat white adipocytes, the activity at 0.1 µM is 48.9%.
For `O=C(Nc1ccc(-n2ccnc2)cc1)c1cccc(NC(=O)c2cc([N+](=O)[O-])ccc2Cl)c1` [Example 231, N-[[3-[4-(Imidazol-1-yl)phenyl]aminocarbonyl]phenyl]-(2-chloro-5-nitrophenyl)carboxamide], the activity at 0.01 µM in the test with leptin production (10 nm) came out at 128%. In addition, the results for the activity at 0.1 µM in the test with leptin production (100 nm) and in the test on Rat white adipocytes were 155% and 20.1%, respectively.
For the compound `Nc1nc(-c2cccc(NC(=O)c3cc([N+](=O)[O-])ccc3Cl)c2)cs1` [Example 233, N-[3-(2-Amiothiazol-4-yl)phenyl]-(2-chloro-5-nitrophenyl)carboxamide], the activity at 0.01 µM in the test with leptin production (10 nm) turned out to be 112%. The activity at 0.1 µM amounted to 121% in the test on leptin production (100 nm) and 47.4% in the test on Rat white adipocytes.
Turning to `CS(=O)(=O)N(c1ccc(-c2ccc(NC(=O)c3cc([N+](=O)[O-])ccc3Cl)cc2)cc1)S(C)(=O)=O` [Example 235, N-[4-[4-(N,N-Dimethanesulfonylamino)phenyl]phenyl]-(2-chloro-5-nitrophenyl)carboxamide], the activity at 1 µM with leptin production (1 μM) is 143%. Also, in the test on leptin production (10 nm), the activity at 0.01 µM is 111%. Besides, the activity at 0.1 µM in the test on leptin production (100 nm) is 121%; with Rat white adipocytes, 3.6%.
For `O=C(Nc1ccc(-c2ccc(NC(=S)Nc3ccncc3)cc2)cc1)c1cc([N+](=O)[O-])ccc1Cl` [Example 258, N-[4-[4-[(Pyridin-4-yl)aminothiocarbonylamino]phenyl]phenyl]-(2-chloro-5-nitrophenyl)carboxamide] the same measures were 112%, 120%, 114% and 39%.
Turning to `O=C(Nc1ccc(NC(=S)Nc2ccncc2)cc1)c1cc([N+](=O)[O-])ccc1Cl` [Example 259, N-[4-[(Pyridin-4-yl)aminothiocarbonylamino]phenyl]-(2-chloro-5-nitrophenyl)carboxamide], in the test on leptin production (10 nm), the activity at 0.01 µM was found to be 111%. The activity at 0.1 µM in the test with leptin production (100 nm) came to 110%; in the test on Rat white adipocytes, 56.5%.
On to `NCCc1ccc(NC(=O)c2cc([N+](=O)[O-])ccc2Cl)cc1` [Example 267, N-[4-(2-Aminoethyl)phenyl]-(2-chloro-5-nitrophenyl)carboxamide], for which the activity at 0.01 µM in the test with leptin production (10 nm) came out at 118%. For the same compound, the activity at 0.1 µM with leptin production (100 nm) stood at 110%; in the test on Rat white adipocytes, 47.3%.
